Experiments:
Aorta [1] = assay: Vasorelaxant activity in Sprague-Dawley rat endothelium thoracic aortic ring assessed as inhibition of phenylephrine-induced submaximal contraction at 180 uM measured after 5 mins; format: functional
Aorta [2] = assay: Vasorelaxant activity in Sprague-Dawley rat endothelium thoracic aortic ring assessed as inhibition of phenylephrine-induced submaximal contraction measured after 5 mins

| IC50 (Aorta [2]) [µM] | Compound | inhibition at 180 µM (Aorta [1]) [%] |
| --- | --- | --- |
| 136 | OC/C=C/c1cccc(Nc2cnc3ccccc3n2)c1 | 78.6 |
| 161 | O=C(O)/C=C/c1cccc(Nc2ccc3ccccc3n2)c1 | 55.9 |

Source: ChEMBL document CHEMBL1799914, “Design and synthesis of small molecule RhoA inhibitors: a new promising therapy for cardiovascular diseases?” (J Med Chem, 2011)
